Assay results reported in patent US20210380666A1, “SYNTHETIC HEME-CONTAINING MOLECULES AND THEIR USE” (priority 2017, published 2021).
Ends that are not written are not given here.

Legend:
[1] = CO binding of dithionite-reduced heme molecule by absorbance spectra; settings: anaerobic, reduced with stoichiometric dithionite, CO saturated phosphate buffered saline added
From the text: A heme molecule bound to two peptide chains Ac-GCHGGR (SEQ ID NO: 2) in a “sandwich” (see FIG. 1), when prepared in anaerobic conditions, changes absorbance spectra (measured by Cary Spec device) with the introduction of stoichiometric amounts of dithionite.

[2] = tested on: 100% CO bound hemoglobin (HbCO); assay: CO scavenging from CO-bound hemoglobin, UV-visible spectra kinetics; type: biochemical; settings: 100% HbCO mixed with reduced heme-peptide; spectral changes during reaction

Substance	CO binding ability (change of absorbance spectra) [1]	kobs for CO scavenging, k1 [2] [s⁻¹]	kobs for CO scavenging, k2 [2] [s⁻¹]
Ac-GCHGGR: heme molecule bound to two peptide chains Ac-GCHGGR in a sandwich configuration (also: heme molecule bound to two peptide chains in a sandwich configuration)	indicating its CO binding ability		
QHGCGGCHG (N-acetyl; heme bound via two thioether bonds)		0.1828	0.00968
RCHGGR: heme group bound to two non-contiguous peptides each of sequence RCHGGR (not fully specified (N-terminus); also: heme group bound to two non-contiguous peptide copies)		0.02576	0.01241
microperoxidase-11 [MP11, reference compound]		0.0215	
